Experimental data: BindingDB's records for doi:10.7270/Q2MP51PC (Pcmd, 2008)

Target: T1, Complement C1s subcomponent (Homo sapiens, UniProt P09871)
T1 sequence (P09871 whole entry): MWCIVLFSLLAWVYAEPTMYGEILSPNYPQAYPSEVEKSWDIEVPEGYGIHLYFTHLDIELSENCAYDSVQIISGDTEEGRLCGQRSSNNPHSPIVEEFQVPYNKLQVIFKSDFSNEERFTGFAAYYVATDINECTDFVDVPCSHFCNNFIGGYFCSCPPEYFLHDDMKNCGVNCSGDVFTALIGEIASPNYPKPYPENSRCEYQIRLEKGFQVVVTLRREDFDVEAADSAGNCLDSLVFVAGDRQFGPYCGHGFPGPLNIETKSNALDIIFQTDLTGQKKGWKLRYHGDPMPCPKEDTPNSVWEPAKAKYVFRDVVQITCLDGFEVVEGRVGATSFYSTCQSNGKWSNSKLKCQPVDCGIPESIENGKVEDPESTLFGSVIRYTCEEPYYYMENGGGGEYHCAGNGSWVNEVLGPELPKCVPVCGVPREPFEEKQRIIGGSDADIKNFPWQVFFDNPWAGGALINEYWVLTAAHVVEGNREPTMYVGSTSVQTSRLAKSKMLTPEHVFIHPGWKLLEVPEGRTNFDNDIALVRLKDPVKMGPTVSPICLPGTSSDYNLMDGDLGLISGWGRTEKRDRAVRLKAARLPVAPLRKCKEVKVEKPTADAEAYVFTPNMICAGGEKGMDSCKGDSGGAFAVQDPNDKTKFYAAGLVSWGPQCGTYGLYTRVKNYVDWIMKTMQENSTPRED
Test: concentration-response of complement C1s inhibitors – biochemical, dose response (AID 787)

With `COC(=O)c1ccccc1NC(=O)c1cc(-c2ccc(OC)c(OC)c2)on1` [2-[[5-(3,4-dimethoxyphenyl)isoxazole-3-carbonyl]amino]benzoic acid methyl ester] the IC50 was over 50 µM.

Work on `O=C(Oc1ccc(-n2cnnn2)cc1)c1ccco1` [2-furancarboxylic acid [4-(1-tetrazolyl)phenyl] ester] yielded an IC50 of over 50 µM.

`CSc1nc(-c2ccco2)nn1C(=O)c1ccco1` [2-furanyl-[3-(2-furanyl)-5-(methylthio)-1,2,4-triazol-1-yl]methanone] gave an IC50 of 4.88 µM.

With `Cc1nc2scc(-c3cccs3)c2c(=O)o1` [2-methyl-5-(2-thienyl)thieno[2,3-d][1,3]oxazin-4-one] the IC50 was over 50 µM.

Molecule `Cc1nc2sc(C(c3cccs3)N3CCN(Cc4ccccc4)CC3)c(O)n2n1` (centres undefined) [2-methyl-5-[[4-(phenylmethyl)-1-piperazinyl]-thiophen-2-ylmethyl]-6-thiazolo[3,2-b][1,2,4]triazolol] has an IC50 of over 50 µM.

`O=C(COC(=O)c1cnccn1)c1ccc(OC(=O)c2ccccc2)cc1` [2-pyrazinecarboxylic acid [2-(4-benzoyloxyphenyl)-2-oxoethyl] ester] gave an IC50 of over 50 µM.

Molecule `CC(C)(C)c1cc(C(=O)NCc2ccccc2)ccn1` [2-tert-butyl-N-(phenylmethyl)-4-pyridinecarboxamide] has an IC50 of over 50 µM.

Work on `COc1ccc(C(=O)SC2=NCCS2)cc1OC` [3,4-dimethoxybenzenecarbothioic acid S-(4,5-dihydrothiazol-2-yl) ester] yielded an IC50 of over 50 µM.

`COc1cc(OC)cc(C(=O)Nc2ncc3c(n2)CC(C)CC3=O)c1` (centres undefined) [3,5-dimethoxy-N-(7-methyl-5-oxidanylidene-7,8-dihydro-6H-quinazolin-2-yl)benzamide] was tested, and the IC50 was over 50 µM.

`CCCc1nc2ccccc2c(=O)n1-c1c(C)n(C)n(-c2ccccc2)c1=O` [3-(1,5-dimethyl-3-oxo-2-phenyl-4-pyrazolyl)-2-propyl-4-quinazolinone] gave an IC50 of over 50 µM.

For `O=C(Nc1nc(-c2cccs2)cs1)c1cccc(S(=O)(=O)N2CCCCCC2)c1` [3-(1-azepanylsulfonyl)-N-(4-thiophen-2-yl-2-thiazolyl)benzamide], the IC50 was over 50 µM.

For `Cc1cc(NC(=O)c2cccc(S(=O)(=O)N3CCCCCC3)c2)n(-c2ccccn2)n1` [3-(1-azepanylsulfonyl)-N-[5-methyl-2-(2-pyridinyl)-3-pyrazolyl]benzamide], the IC50 was over 50 µM.

`CC1(C)C(c2ccccc2)=NC(c2cccnc2)N1O` (centres undefined) [3-(1-hydroxy-5,5-dimethyl-4-phenyl-2H-imidazol-2-yl)pyridine] was tested, and the IC50 was over 50 µM.

`COc1ccccc1CN1CCCCC1c1cccnc1` (centres undefined) [3-(1-o-anisyl-2-piperidyl)pyridine] showed an IC50 of over 50 µM.

In the case of `O=C(Nc1ccccn1)c1cccc(S(=O)(=O)N2CCCCC2)c1` [3-(1-piperidinylsulfonyl)-N-(2-pyridinyl)benzamide], the IC50 is reported as over 50 µM.

`O=C(Nc1nccs1)c1cccc(S(=O)(=O)N2CCCCC2)c1` [3-(1-piperidinylsulfonyl)-N-(2-thiazolyl)benzamide] showed an IC50 of over 50 µM.

`O=C(Nc1nc(-c2cccs2)cs1)c1cccc(S(=O)(=O)N2CCCCC2)c1` [3-(1-piperidinylsulfonyl)-N-(4-thiophen-2-yl-2-thiazolyl)benzamide] gave an IC50 of over 50 µM.

`O=C(NCc1cccs1)c1cccc(S(=O)(=O)N2CCCCC2)c1` [3-(1-piperidinylsulfonyl)-N-(thiophen-2-ylmethyl)benzamide] gave an IC50 of over 50 µM.

`O=c1c(-c2ccco2)[n+]([O-])c2ccccc2n1OCc1ccccn1` [3-(2-furanyl)-4-oxido-1-(2-pyridinylmethoxy)-2-quinoxalin-4-iumone] showed an IC50 of 37.9 µM.

`CCc1ccc(-c2cn(-c3nc(C)cc(C)n3)c(=N)o2)cc1` [3-(4,6-dimethyl-2-pyrimidinyl)-5-(4-ethylphenyl)-2-oxazolimine] was tested, and the IC50 was over 50 µM.

In the case of `CC1CCN(S(=O)(=O)c2cccc(C(=O)NCc3cccs3)c2)CC1` [3-(4-Methyl-piperidine-1-sulfonyl)-N-thiophen-2-ylmethyl-benzamide], the IC50 is reported as over 50 µM.

`CC(=O)N1CCN(C(=O)c2cccc(S(=O)(=O)Nc3ccc(C)cc3)c2)CC1` [3-(4-acetylpiperazine-1-carbonyl)-N-(4-methylphenyl)benzenesulfonamide] showed an IC50 of over 50 µM.

For `CC1CCN(S(=O)(=O)c2cccc(C(=O)Nc3nccs3)c2)CC1` [3-(4-methylpiperidin-1-yl)sulfonyl-N-(1,3-thiazol-2-yl)benzamide], the IC50 was over 50 µM.

`O=C(Nc1nccs1)c1cccc(S(=O)(=O)N2CCOCC2)c1` [3-(4-morpholinylsulfonyl)-N-(2-thiazolyl)benzamide] gave an IC50 of over 50 µM.

In the case of `Cc1csc(N(C(=O)c2cccc(S(=O)(=O)N(C)C)c2)c2ccccc2)n1` [3-(dimethylsulfamoyl)-N-(4-methyl-1,3-thiazol-2-yl)-N-phenyl-benzamide], the IC50 is reported as over 50 µM.

`c1ccc(Cc2nn3c(COc4ccccc4)nnc3s2)cc1` [3-(phenoxymethyl)-6-(phenylmethyl)-[1,2,4]triazolo[3,4-b][1,3,4]thiadiazole] gave an IC50 of over 50 µM.

In the case of `CCn1c(=O)c(C(C)=O)nc2ccccc21` [3-acetyl-1-ethyl-2-quinoxalinone], the IC50 is reported as over 50 µM.

`O=C(NC1=NCCS1)c1cccc(S(=O)(=O)N2CCCCC2)c1` [3-piperidinosulfonyl-N-(2-thiazolin-2-yl)benzamide] showed an IC50 of over 50 µM.

`c1cncc(-c2nnc3n2N=C(c2cccs2)CS3)c1` [3-pyridin-3-yl-6-thiophen-2-yl-7H-[1,2,4]triazolo[3,4-b][1,3,4]thiadiazine] showed an IC50 of over 50 µM.

Work on `CCC(C)N1CC23C=CC(O2)C(C(=O)OCc2ccccc2)C3C1=O` (centres undefined) [3-sec-Butyl-4-oxo-10-oxa-3-aza-tricyclo[5.2.1.0*1,5*]dec-8-ene-6-carboxylic acid benzyl ester] yielded an IC50 of over 50 µM.

`NC(=O)C1(N2CCCCC2)CCN(C(=O)Nc2ccccc2C(F)(F)F)CC1` [4-(1-piperidinyl)-N1-[2-(trifluoromethyl)phenyl]piperidine-1,4-dicarboxamide] gave an IC50 of over 50 µM.

For `COCCCNC(CC(=O)Nc1ccccc1C(=O)OC)C(=O)O` (centres undefined) [4-(2-carbomethoxyanilino)-4-keto-2-(3-methoxypropylamino)butyric acid], the IC50 was over 50 µM.

`CCOC(=O)N1CCN(C(=O)CN(c2cccc(C)c2)S(=O)(=O)c2ccc(C)cc2)CC1` [4-[2-(3-methyl-N-(4-methylphenyl)sulfonylanilino)-1-oxoethyl]-1-piperazinecarboxylic acid ethyl ester] showed an IC50 of over 50 µM.

`CCCCn1c(-c2cc(Cl)ccc2OC)n[nH]c1=S` [4-butyl-3-(5-chloro-2-methoxyphenyl)-1H-1,2,4-triazole-5-thione] was tested, and the IC50 was over 50 µM.

In the case of `CC(C)NS(=O)(=O)c1cc(C(=O)O)ccc1Cl` [4-chloranyl-3-(propan-2-ylsulfamoyl)benzoic acid], the IC50 is reported as over 50 µM.

`O=C(Nc1nccs1)c1ccc(Cl)c(S(=O)(=O)N2CCOCC2)c1` [4-chloranyl-3-morpholin-4-ylsulfonyl-N-(1,3-thiazol-2-yl)benzamide] gave an IC50 of over 50 µM.

With `O=C(Nc1nccs1)c1ccc(Cl)c(S(=O)(=O)N2CCCCC2)c1` [4-chloranyl-3-piperidin-1-ylsulfonyl-N-(1,3-thiazol-2-yl)benzamide] the IC50 was over 50 µM.

With `O=C(Oc1ccc(Cl)cc1-n1c(O)ccc1O)c1ccco1` [4-chloro-2-(2,5-dioxo-1-pyrrolidinyl)phenyl 2-furoate] the IC50 was over 50 µM.

With `CCn1c(CCn2ccnc2C)n[nH]c1=S` [4-ethyl-5-[2-(2-methyl-1H-imidazol-1-yl)ethyl]-2,4-dihydro-3H-1,2,4-triazole-3-thione] the IC50 was over 50 µM.

Molecule `CCc1c(C(=O)NCc2cnn(C)c2)csc1C` [4-ethyl-5-methyl-N-[(1-methyl-1H-pyrazol-4-yl)methyl]-3-thiophenecarboxamide] has an IC50 of over 50 µM.

With `CCOC(=O)c1sc(NC(=O)c2cc(S(=O)(=O)N3CCOCC3)ccc2C)nc1C` [4-methyl-2-[(2-methyl-5-morpholinosulfonyl-benzoyl)amino]thiazole-5-carboxylic acid ethyl ester] the IC50 was over 50 µM.

Work on `Cc1ccc(C(=O)Nc2nccs2)cc1S(=O)(=O)N1CCCCC1` [4-methyl-3-(1-piperidinylsulfonyl)-N-(2-thiazolyl)benzamide] yielded an IC50 of over 50 µM.

`Cc1csc(NC(=O)c2ccc(C)c(S(=O)(=O)N3CCCCC3)c2)n1` [4-methyl-N-(4-methyl-1,3-thiazol-2-yl)-3-piperidin-1-ylsulfonyl-benzamide] gave an IC50 of over 50 µM.

In the case of `CC(=O)NC(=O)NC1CSCC1OC(C)=O` (centres undefined) [4-{[(acetylamino)carbonyl]amino}tetrahydro-3-thienyl acetate], the IC50 is reported as over 50 µM.

`CCc1ccc(C2CC(c3ccccc3Cl)Nc3nc(N)nn32)cc1` (centres undefined) [5-(2-chlorophenyl)-7-(4-ethylphenyl)-1,5,6,7-tetrahydro-[1,2,4]triazolo[1,5-a]pyrimidin-2-amine] showed an IC50 of over 50 µM.

`COc1ccc(CNC(=O)c2cc(-c3ccc(OC)c(OC)c3)on2)cc1` [5-(3,4-dimethoxyphenyl)-N-(4-methoxybenzyl)isoxazole-3-carboxamide] showed an IC50 of over 50 µM.

With `CC(C)NC(=O)c1cc(-c2ccc(Br)cc2)on1` [5-(4-bromophenyl)-N-isopropyl-isoxazole-3-carboxamide] the IC50 was over 50 µM.

`Cc1ccc(-c2cc(C(=O)NCc3ccccn3)no2)cc1` [5-(4-methylphenyl)-N-(2-pyridinylmethyl)-3-isoxazolecarboxamide] gave an IC50 of over 50 µM.

`Cc1ccccc1S(=O)(=O)Cc1ccc(C(=O)NCc2cccnc2)o1` [5-(o-tolylsulfonylmethyl)-N-(3-pyridylmethyl)-2-furamide] showed an IC50 of over 50 µM.
